Here are results for one compound from US20070110802A1, “Wet granulation process” (priority 2005, published 2007).

A value given as a limit tells only on which side of the number the result lay.

Data set [1] is described as follows: pH dependent aqueous solubility of Compound A. It is filed as physicochemical. The procedure:
The material was analyzed for hydrate formation.

Procedure for physchem: The pKa of a compound is determined experimentally or it can be calculated, such as with ACDLABS8.0 software.

As to `Cc1c(Cl)cccc1S(=O)(=O)Nc1nc(CCN2CCOCC2=O)cs1` [Compound A, 3-chloro-2-methyl-N-(4-(2-(3-oxo-4-morpholinyl)ethyl)-1,3-thiazol-2-yl)benzenesulfonamide], the pKa in the data set “physchem” is ~6.6. For the same compound, the “pH dependent solubility (FIG. 9)” value in data set [1] (solubility versus pH) is recorded as “solubility increases at a pH consistent with the approximate pKa value”. For the same compound, the solubility in data set [1] (water, pH 4, aqueous buffer) is < 15 µg/mL.
